Source: US20230091047A1 (priority 2019, published 2023)

Assays:
[1] = tested on: HBV (HepG2.117 cell line, inducibly HBV producing); assay: Anti-HBV activity: intracellular HBV DNA by real-time PCR in HepG2.117 cells after 3 days of treatment; type: cell-based, hepatitis B virus; conditions: Hepatitis B virus, HepG2.117, 72 h, HepG2.117 cells, 3 days of treatment, intracellular HBV DNA by real-time PCR; mean value; read-out: EC50 (μM, mean value)
In short: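 Readout is intracellular HBV DNA, measured by real-time PCR with HBV-specific primers and probe after 3 days of exposure to serial compound dilutions. Cells are the stable HepG2.117 line, where HBV replication is induced in the absence of doxycycline.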

[2] = in vitro; type: cell-based; conditions: human, HepG2 or HepG2.117 cells, 3-days incubation (unmarked values), ATPlite; mean value
In short: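 Luminescent ATP quantitation served as the viability endpoint following a 3- or 4-day incubation with test compounds.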

SMILES	EC50 [1]	CC50 at 3 days [2]
CNC(=O)c1cccc(-n2c(NC(C)C)nc3c(c2=O)C[C@@H](C)N(C(=O)c2ccc(Cl)c(Cl)c2)C3)c1 [Compound C232, 3-[(6R)-7-(3,4-dichlorobenzoyl)-6-methyl-4-oxo-2-[(propan-2-yl)amino]-5,6,7,8-tetrahydropyrido[3,4-d]pyrimidin-3(4H)-yl]-N-methylbenzamide]	0.15 µM	> 50 µM
COC(=O)C12CC(n3c(NC(C)C)nc4c(c3=O)C[C@@H](C)N(C(=O)c3ccc(Cl)c(Cl)c3)C4)(C1)C2 [Compound C236]	> 50 µM	> 50 µM
CC(C)Nc1nc2c(c(=O)n1-c1ccc(-c3ncccn3)cc1)C[C@@H](C)N(C(=O)c1ccc(Cl)c(Cl)c1)C2 [Compound C237, (6R)-7-(3,4-dichlorobenzoyl)-6-methyl-2-[(propan-2-yl)amino]-3-[4-(pyrimidin-2-yl)phenyl]-5,6,7,8-tetrahydropyrido[3,4-d]pyrimidin-4(3H)-one]	0.23 µM	> 50 µM
CC(C)Nc1nc2c(c(=O)n1-c1ccc(-c3nccs3)cc1)CCN(C(=O)c1ccc(Cl)c(Cl)c1)C2 [Compound C238, 7-(3,4-dichlorobenzoyl)-2-[(propan-2-yl)amino]-3-[4-(1,3-thiazol-2-yl)phenyl]-5,6,7,8-tetrahydropyrido[3,4-d]pyrimidin-4(3H)-one]	0.56 µM	> 50 µM
CC(C)Nc1nc2c(c(=O)n1-c1ccc(-c3nccs3)cc1)C[C@@H](C)N(C(=O)c1ccc(Cl)c(Cl)c1)C2 [Compound C240, (6R)-7-(3,4-dichlorobenzoyl)-6-methyl-2-[(propan-2-yl)amino]-3-[4-(1,3-thiazol-2-yl)phenyl]-5,6,7,8-tetrahydropyrido[3,4-d]pyrimidin-4(3H)-one]	0.13 µM	> 50 µM
CC(C)Nc1nc2c(c(=O)n1-c1ccc(-c3cc[nH]n3)cc1)C[C@@H](C)N(C(=O)c1ccc(Cl)c(Cl)c1)C2 [Compound C241, (6R)-7-(3,4-dichlorobenzoyl)-6-methyl-2-[(propan-2-yl)amino]-3-[4-(1H-pyrazol-3-yl)phenyl]-5,6,7,8-tetrahydropyrido[3,4-d]pyrimidin-4(3H)-one]	0.19 µM	33.1 µM
Cc1nnc(-c2ccc(-n3c(NC(C)C)nc4c(c3=O)C[C@@H](C)N(C(=O)c3ccc(Cl)c(Cl)c3)C4)cc2)o1 [Compound C242, (6R)-7-(3,4-dichlorobenzoyl)-6-methyl-3-[4-(5-methyl-1,3,4-oxadiazol-2-yl)phenyl]-2-[(propan-2-yl)amino]-5,6,7,8-tetrahydropyrido[3,4-d]pyrimidin-4(3H)-one]	0.28 µM	> 50 µM
Cc1cc(-c2ccc(-n3c(NC(C)C)nc4c(c3=O)C[C@@H](C)N(C(=O)c3ccc(Cl)c(Cl)c3)C4)cc2)n[nH]1 [Compound C243, (6R)-7-(3,4-dichlorobenzoyl)-6-methyl-3-[4-(5-methyl-1H-pyrazol-3-yl)phenyl]-2-[(propan-2-yl)amino]-5,6,7,8-tetrahydropyrido[3,4-d]pyrimidin-4(3H)-one]	0.23 µM	28.7 µM
Cc1nc(-c2ccc(-n3c(NC(C)C)nc4c(c3=O)C[C@@H](C)N(C(=O)c3ccc(Cl)c(Cl)c3)C4)cc2)c[nH]1 [Compound C244, (6R)-7-(3,4-dichlorobenzoyl)-6-methyl-3-[4-(2-methyl-1H-imidazol-4-yl)phenyl]-2-[(propan-2-yl)amino]-5,6,7,8-tetrahydropyrido[3,4-d]pyrimidin-4(3H)-one]	0.12 µM	22.9 µM
Cc1nnc(-c2ccc(-n3c(NC(C)C)nc4c(c3=O)C[C@@H](C)N(C(=O)c3ccc(Cl)c(Cl)c3)C4)cc2)s1 [Compound C245, (6R)-7-(3,4-dichlorobenzoyl)-6-methyl-3-[4-(5-methyl-1,3,4-thiadiazol-2-yl)phenyl]-2-[(propan-2-yl)amino]-5,6,7,8-tetrahydropyrido[3,4-d]pyrimidin-4(3H)-one]	0.17 µM	> 50 µM
Cc1cc(-c2ccc(-n3c(NC(C)C)nc4c(c3=O)C[C@@H](C)N(C(=O)c3ccc(Cl)c(Cl)c3)C4)cc2)on1 [Compound C246, (6R)-7-(3,4-dichlorobenzoyl)-6-methyl-3-[4-(3-methyl-1,2-oxazol-5-yl)phenyl]-2-[(propan-2-yl)amino]-5,6,7,8-tetrahydropyrido[3,4-d]pyrimidin-4(3H)-one]	0.19 µM	> 50 µM
Cc1csc(-c2ccc(-n3c(NC(C)C)nc4c(c3=O)C[C@@H](C)N(C(=O)c3ccc(Cl)c(Cl)c3)C4)cc2)n1 [Compound C247, (6R)-7-(3,4-dichlorobenzoyl)-6-methyl-3-[4-(4-methyl-1,3-thiazol-2-yl)phenyl]-2-[(propan-2-yl)amino]-5,6,7,8-tetrahydropyrido[3,4-d]pyrimidin-4(3H)-one]	0.12 µM	> 50 µM
Cc1[nH]cnc1-c1ccc(-n2c(NC(C)C)nc3c(c2=O)C[C@@H](C)N(C(=O)c2ccc(Cl)c(Cl)c2)C3)cc1 [Compound C248, (6R)-7-(3,4-dichlorobenzoyl)-6-methyl-3-[4-(5-methyl-1H-imidazol-4-yl)phenyl]-2-[(propan-2-yl)amino]-5,6,7,8-tetrahydropyrido[3,4-d]pyrimidin-4(3H)-one]	0.13 µM	31.1 µM
CC(C)Nc1nc2c(c(=O)n1-c1ccc(-c3n[nH]c(Br)n3)cc1)C[C@@H](C)N(C(=O)c1ccc(Cl)c(Cl)c1)C2 [Compound C249, (6R)-3-[4-(5-bromo-1H-1,2,4-triazol-3-yl)phenyl]-7-(3,4-dichlorobenzoyl)-6-methyl-2-[(propan-2-yl)amino]-5,6,7,8-tetrahydropyrido[3,4-d]pyrimidin-4(3H)-one]	0.49 µM	> 50 µM
Cc1c[nH]c(-c2ccc(-n3c(NC(C)C)nc4c(c3=O)C[C@@H](C)N(C(=O)c3ccc(Cl)c(Cl)c3)C4)cc2)n1 [Compound C250, (6R)-7-(3,4-dichlorobenzoyl)-6-methyl-3-[4-(4-methyl-1H-imidazol-2-yl)phenyl]-2-[(propan-2-yl)amino]-5,6,7,8-tetrahydropyrido[3,4-d]pyrimidin-4(3H)-one]	0.07 µM	8.9 µM
CNC(=O)c1ccc(-n2c(NC34CC(C3)C4)nc3c(c2=O)C[C@@H](C)N(C(=O)c2ccc(Cl)c(Cl)c2)C3)cc1 [Compound C251, 4-[(6R)-2-[(bicyclo[1.1.1]pentan-1-yl)amino]-7-(3,4-dichlorobenzoyl)-6-methyl-4-oxo-5,6,7,8-tetrahydropyrido[3,4-d]pyrimidin-3(4H)-yl]-N-methylbenzamide]	0.25 µM	> 50 µM
CNC(=O)c1ccc(-n2c(N3CCC[C@H]3C)nc3c(c2=O)C[C@@H](C)N(C(=O)c2ccc(Cl)c(Cl)c2)C3)cc1 [Compound C252, 4-[(6R)-7-(3,4-dichlorobenzoyl)-6-methyl-2-[(2R)-2-methylpyrrolidin-1-yl]-4-oxo-5,6,7,8-tetrahydropyrido[3,4-d]pyrimidin-3(4H)-yl]-N-methylbenzamide]	0.04 µM	25.9 µM
CNC(=O)c1ccc(-n2c(N[C@@H](C)c3ccccc3)nc3c(c2=O)C[C@@H](C)N(C(=O)c2ccc(Cl)c(Cl)c2)C3)cc1 [Compound C253, 4-[(6R)-7-(3,4-dichlorobenzoyl)-6-methyl-4-oxo-2-{[(1S)-1-phenylethyl]amino}-5,6,7,8-tetrahydropyrido[3,4-d]pyrimidin-3(4H)-yl]-N-methylbenzamide]	0.1 µM	22.9 µM
